In patent US11174287B2, “Central nervous system homing peptides and uses thereof” (UNIVERSITY OF MARYLAND, BALTIMORE, priority 2017, dated 2021):
Ends that are not written are not given here.

Legend:
[1] = system: spleen, kidney, liver and lung tissue of normal mice; assay: Peptide overlay assay, FITC-labeled peptide binding in various organs of normal mice; design: species or system mouse
Source text: (§1) The peptide sequences were synthesized by Genscript (NJ, USA) with at least 95% purity. For fluorescent peptides, fluorescein isothiocyanate (FITC) dye was conjugated at the amino terminus of peptides. The excitation/emission wavelengths for FITC were 490/520 nm.

[2] = system: spleen, kidney, liver and lung tissue of EAE mice; assay: Peptide overlay assay, FITC-labeled peptide binding to various organs of EAE mice; design: species or system mouse
Source text: as §1

[3] = system: inflamed central nervous system (spinal cord, brain) of EAE mice; assay: NIR imaging of brain and spinal cord after i.v. injection of Cy7-labeled peptide (IVIS Xenogen); type: in vivo, mouse; settings: for accumulation (NIR signal) in the spinal cord: perfused
Description: The antigen was prepared by emulsifying the myelin oligodendrocyte glycoprotein (MOG) region of 35-55 peptide sequence with at least >98% purity based on mass spectrophotometry (CS Bio, CA, USA) with an equal volume of complete Freund's adjuvant (CFA) containing 5 mg/ml of heat killed desiccated M. tuberculosis-H37RA (Bacto, MI, USA). The suspension was thoroughly mixed to form a thick emulsion. Experimental autoimmune encephalomyelitis (EAE), which closely resembles human multiple sclerosis (MS) was induced in C57BL/6 mice by subcutaneous injection of 200 μg/MOG/mouse. In addition, 2 doses of 200-400 ng each of Pertussis toxin (Calbiochem, CA, USA) were administered i.p. after MOG injection at 0 and 48 hours.
Near Infrared (NIR) Cyanine 7 (Cy7) dye-labeled test peptide CRGGKRSSC (SEQ ID NO:14) or control peptide was injected into the tail vein of diseased (EAE) mice and naive (control) mice. The peptides were allowed to circulate for 24 hours. Thereafter, mice were euthanized, perfused extensively through the heart using PBS. Following that, the brain and spinal cord were removed and scanned for NIR imaging signals using IVIS Xenogen imaging System.

[4] = system: spinal cord and brain cerebellum of EAE mice; assay: FITC-labeled peptide binding to spinal cord and brain cerebellum; design: species or system mouse; settings: compared to scrambled peptide CSGRRGKSC
Source text: as §1

Substance | binding of FITC-labeled peptide to spleen, kidney, liver and lung tissue [1] | binding of FITC-labeled peptide to spleen, kidney, liver and lung tissue [2] | homing when injected into the bloodstream ([3]; EAE mice versus normal mice) | binding of FITC-labeled peptide to spinal cord and cerebellum [4] | NIR signal in the cerebellum ([3]; EAE mice versus control mice and control peptide, intensity relative to spinal cord, 24 hours) | accumulation (NIR signal) in the spinal cord ([3]; EAE mice, tail vein injection, 24 hours circulation) | accumulation (NIR signal) in the spinal cord ([3]; naive (control) mice, tail vein injection, 24 hours circulation) | NIR signal in the cerebrum ([3]; tail vein injection, 24 hours circulation)
CRAKGRDAC (cysteine pairing not given here; also: FITC label, site not given here) [CNS-homing peptide containing the RAK motif] | minimal binding | minimal binding except for lung | – | – | – | – | – | –
CRGGKRSSC (cysteine pairing not given here; also: FITC label, site not given here) [CNS-homing peptide from CX7C phage library, denoted "KRSS"] | minimal binding except for spleen | minimal binding | preferentially homed to inflamed spinal cord of EAE mice but not in normal mice | significantly higher binding | – | – | – | –
KRSS-Cy7: Near Infrared cyanine 7 (Cy7) dye-labeled test peptide CRGGKRSSC (SEQ ID NO:14) (cysteine pairing not given here; also: Cy7 dye label, site not given here) | – | – | – | – | much lower in intensity | significantly higher accumulation | barely showed any detectable signal | no signal was detected
